Assays:
Assay type in all cases: in vivo
Spodoptera littoralis = assay: Activity against Spodoptera littoralis (Egyptian cotton leaf worm), sprayed cotton leaf discs; conditions: foliar, 72 h, application rate 200 ppm, L1 larvae, assessed 3 days after infestation vs untreated, read-out: control (at least one of mortality, anti-feedant effect, growth inhibition)
Experimental: Example B4: Activity Against Spodoptera littoralis (Egyptian Cotton Leaf Worm)
Cotton leaf discs were placed onto agar in 24-well microtiter plates and sprayed with aqueous test solutions prepared from 10′000 ppm DMSO stock solutions. After drying the leaf discs were infested with five L1 larvae. The samples were assessed for mortality, anti-feeding effect, and growth inhibition in comparison to untreated samples 3 days after infestation. Control of Spodoptera littoralis by a test sample is given when at least one of the categories mortality, anti-feedant effect, and growth inhibition is higher than the untreated sample.

Diabrotica balteata = assay: Activity against Diabrotica balteata (corn root worm), sprayed maize sprouts on agar; conditions: 96 h, application rate 200 ppm, L2 larvae, assessed 4 days after infestation vs untreated, read-out: effect in at least one of the two categories (mortality or growth inhibition)
Experimental: Example B2: Activity Against Diabrotica Balteata (Corn Root Worm)
Maize sprouts placed onto an agar layer in 24-well microtiter plates were treated with aqueous test solutions prepared from 10′000 ppm DMSO stock solutions by spraying. After drying, the plates were infested with L2 larvae (6 to 10 per well). The samples were assessed for mortality and growth inhibition in comparison to untreated samples 4 days after infestation.

Plutella xylostella = assay: Activity against Plutella xylostella (diamond back moth), artificial diet in 24-well plates; conditions: 192 h, application rate 200 ppm, eggs, assessed 8 days after infestation vs untreated, read-out: effect in at least one of the two categories (mortality or growth inhibition)
Experimental: Example B3: Activity Against Plutella xylostella (Diamond Back Moth)
24-well microtiter plates with artificial diet were treated with aqueous test solutions prepared from 10′000 ppm DMSO stock solutions by pipetting. After drying, Plutella eggs were pipetted through a plastic stencil onto a gel blotting paper and the plate was closed with it. The samples were assessed for mortality and growth inhibition in comparison to untreated samples 8 days after infestation.

Chilo suppressalis = assay: Activity against Chilo suppressalis (striped rice stemborer), artificial diet in 24-well plates; conditions: 144 h, application rate 200 ppm, L2 larvae, assessed 6 days after infestation vs untreated, read-out: control (at least one of mortality, anti-feedant effect, growth inhibition)
Experimental: Example B1: Activity Against Chilo suppressalis (Striped Rice Stemborer)
24-well microtiter plates with artificial diet were treated with aqueous test solutions prepared from 10′000 ppm DMSO stock solutions by pipetting. After drying, the plates were infested with L2 larvae (6-8 per well). The samples were assessed for mortality, anti-feeding effect, and growth inhibition in comparison to untreated samples 6 days after infestation. Control of Chilo suppressalis by a test sample is given when at least one of the categories mortality, anti-feedant effect, and growth inhibition is higher than the untreated sample.

CCS(=O)(=O)c1c(-c2coc3cc(C(F)(F)F)ccc3c2=O)nc2cc(C(F)(F)F)ccn12 [P.1, 3-[3-ethylsulfonyl-7-(trifluoromethyl)imidazo[1,2-a]pyridin-2-yl]-7-(trifluoromethyl)chromen-4-one]
≥ 80%: percent control (mortality, anti-feedant effect or growth inhibition) at 200 ppm (Spodoptera littoralis) | percent effect (mortality or growth inhibition) at 200 ppm (Diabrotica balteata) | percent effect (mortality or growth inhibition) at 200 ppm (Plutella xylostella) | percent control (mortality, anti-feedant effect or growth inhibition) at 200 ppm (Chilo suppressalis)

— patent publication US20260274837A1, “PESTICIDALLY ACTIVE HETEROCYCLIC DERIVATIVES WITH SULFUR CONTAINING SUBSTITUENTS” (SYNGENTA CROP PROTECTION AG, priority 2023, published 2026)
